Results published in patent US8901118B2, “Compounds and methods for kinase modulation, and indications therefor” (Plexxikon Inc., priority 2010, dated 2014).

Columns and labels:
[1] = target: T1, BCR-FMS BaF3 cells (Homo sapiens, UniProt P07333); test: BaF3 BCR-FMS cell proliferation assay (ATPlite); type: cell-based; conditions: read-out: Inhibition of Cell Proliferation IC50, BCR/BaF3 Fms
T1 construct: fused on or other part: P11274 (Breakpoint cluster region protein)
T1 sequence (P07333 582-910): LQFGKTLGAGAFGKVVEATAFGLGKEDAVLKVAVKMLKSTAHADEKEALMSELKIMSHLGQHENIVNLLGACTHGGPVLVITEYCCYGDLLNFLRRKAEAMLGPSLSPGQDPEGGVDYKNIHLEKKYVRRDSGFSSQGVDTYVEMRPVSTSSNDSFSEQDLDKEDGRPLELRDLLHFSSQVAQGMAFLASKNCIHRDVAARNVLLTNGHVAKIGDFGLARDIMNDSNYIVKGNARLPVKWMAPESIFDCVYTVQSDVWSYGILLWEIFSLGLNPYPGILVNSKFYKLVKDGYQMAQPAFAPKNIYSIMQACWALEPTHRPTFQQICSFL
Outline: (§1)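 BaF3 lines were seeded at 10,000 cells/well in growth medium with 1 mg/mL G418 but no IL-3, and MV-4-11 cells at 25,000 cells/well; plates were left overnight at 37 °C. Compounds were added as an 8-point 1:3 series with a top concentration of 10 μM and incubated 3 days. IC50 was taken from ATPlite luminescence.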

[2] = target: Fms kinase (Homo sapiens, UniProt P07333); test: Fms kinase biochemical activity assay (AlphaScreen, biotin-(E4Y)10 phosphorylation); conditions: 100 μM ATP; read-out: Biochemical Inhibition IC50 Fms
Outline: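 Fms kinase (1 ng/well) phosphorylating 30 nM biotin-(E4Y)10 with 100 μM ATP in 25 mM Hepes pH 7.5, MgCl2/MnCl2, 5% DMSO, 20 min at 30 °C. Phosphotyrosine detected by AlphaScreen streptavidin donor and PY20 acceptor beads; IC50 from signal versus compound concentration.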

[3] = target: T2, BCR-NTRK1 BaF3 cells (Homo sapiens, UniProt P04629); test: BaF3 BCR-NTRK1 cell proliferation assay (ATPlite); type: cell-based; conditions: read-out: Inhibition of Cell Proliferation IC50, BCR/BaF3 TrkA
T2 construct: fused on or other part: P11274 (Breakpoint cluster region protein)
Outline: as §1

[4] = target: T3, BCR-NTRK2 BaF3 cells (Homo sapiens, UniProt Q16620); test: BaF3 BCR-NTRK2 cell proliferation assay (ATPlite); type: cell-based; conditions: read-out: Inhibition of Cell Proliferation IC50, BCR/BaF3 TrkB
T3 construct: fused on or other part: P11274 (Breakpoint cluster region protein)
Outline: as §1

Sequence of Fms kinase (P07333 20-972): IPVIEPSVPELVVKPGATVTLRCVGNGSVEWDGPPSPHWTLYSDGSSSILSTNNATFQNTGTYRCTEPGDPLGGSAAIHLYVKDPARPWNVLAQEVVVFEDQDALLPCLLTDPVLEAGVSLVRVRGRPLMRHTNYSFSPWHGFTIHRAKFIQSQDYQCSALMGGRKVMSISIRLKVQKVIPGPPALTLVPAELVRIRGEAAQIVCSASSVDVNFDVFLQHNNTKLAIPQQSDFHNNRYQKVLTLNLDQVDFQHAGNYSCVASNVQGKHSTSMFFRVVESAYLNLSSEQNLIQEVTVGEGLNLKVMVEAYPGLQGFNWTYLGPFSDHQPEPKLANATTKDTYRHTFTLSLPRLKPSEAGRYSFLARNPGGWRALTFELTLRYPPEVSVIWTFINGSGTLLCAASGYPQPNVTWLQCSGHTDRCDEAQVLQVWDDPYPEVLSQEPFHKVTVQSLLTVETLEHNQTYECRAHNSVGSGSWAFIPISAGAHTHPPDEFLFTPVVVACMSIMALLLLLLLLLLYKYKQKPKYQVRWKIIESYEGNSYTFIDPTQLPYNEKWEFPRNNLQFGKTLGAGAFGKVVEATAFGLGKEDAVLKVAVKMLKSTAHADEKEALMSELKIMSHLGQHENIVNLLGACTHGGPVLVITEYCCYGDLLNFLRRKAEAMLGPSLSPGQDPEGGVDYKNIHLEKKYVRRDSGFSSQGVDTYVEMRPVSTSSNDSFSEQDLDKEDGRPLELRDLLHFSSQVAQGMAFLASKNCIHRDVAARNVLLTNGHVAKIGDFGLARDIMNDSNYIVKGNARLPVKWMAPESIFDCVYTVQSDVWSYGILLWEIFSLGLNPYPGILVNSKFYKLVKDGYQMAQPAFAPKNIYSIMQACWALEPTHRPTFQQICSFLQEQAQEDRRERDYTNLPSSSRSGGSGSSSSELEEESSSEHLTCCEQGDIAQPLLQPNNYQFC
T2 sequence (P04629 510-781): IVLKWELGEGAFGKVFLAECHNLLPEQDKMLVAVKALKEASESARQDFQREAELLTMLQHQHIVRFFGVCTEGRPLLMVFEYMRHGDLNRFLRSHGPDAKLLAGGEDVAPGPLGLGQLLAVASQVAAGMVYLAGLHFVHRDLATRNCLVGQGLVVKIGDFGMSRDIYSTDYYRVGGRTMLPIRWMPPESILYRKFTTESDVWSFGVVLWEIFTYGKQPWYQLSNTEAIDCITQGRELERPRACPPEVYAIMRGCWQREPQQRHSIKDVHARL
T3 sequence (Q16620 538-807): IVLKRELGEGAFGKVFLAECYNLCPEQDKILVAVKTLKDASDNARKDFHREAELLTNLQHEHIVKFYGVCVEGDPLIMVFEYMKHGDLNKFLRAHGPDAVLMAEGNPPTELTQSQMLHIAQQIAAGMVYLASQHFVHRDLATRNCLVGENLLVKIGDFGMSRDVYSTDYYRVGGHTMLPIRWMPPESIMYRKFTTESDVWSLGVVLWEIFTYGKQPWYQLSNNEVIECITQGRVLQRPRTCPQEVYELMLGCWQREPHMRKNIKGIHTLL

| SMILES | IC50 [1] | IC50 [2] | IC50 [3] | IC50 [4] |
| --- | --- | --- | --- | --- |
| Clc1cnc2[nH]cc(Cc3cnc(NC4CCC4)nc3)c2c1 [Compound P-3007, [5-(5-Chloro-1H-pyrrolo[2,3-b]pyridin-3-ylmethyl)-pyrimidin-2-yl]-cyclobutyl-amine] | < 1000 nM | < 1000 nM | > 10000 nM | > 10000 nM |
| Cc1cnc2[nH]cc(Cc3ccc(NC4CCCCC4)nc3F)c2c1 [Compound P-3008, cyclohexyl-[6-fluoro-5-(5-methyl-1H-pyrrolo[2,3-b]pyridin-3-ylmethyl)-pyridin-2-yl]-amine] | < 100 nM | < 100 nM |  |  |
| O=C(c1ccc(Nc2ccc(C3CC3)nc2)nc1F)c1c[nH]c2ncnc(C3CC3)c12 [Compound P-4040, [6-(6-Cyclopropyl-pyridin-3-ylamino)-2-fluoro-pyridin-3-yl]-(4-cyclopropyl-7H-pyrrolo[2,3-d]pyrimidin-5-yl)-methanone] | < 100 nM | < 100 nM | < 10 nM | < 10 nM |
| Fc1nc(Nc2ccc(C3CC3)nc2)ccc1Cc1c[nH]c2ncnc(C3CC3)c12 [Compound P-4041, (6-Cyclopropyl-pyridin-3-yl)-[5-(4-cyclopropyl-7H-pyrrolo[2,3-d]pyrimidin-5-ylmethyl)-6-fluoro-pyridin-2-yl]-amine] | < 10 nM | < 100 nM | < 10 nM | < 10 nM |
| Nc1ncnc2[nH]cc(C(=O)c3ccc(NC4CCC(F)(F)CC4)nc3Cl)c12 [Compound P-4046, (4-amino-7H-pyrrolo[2,3-d]pyrimidin-5-yl)-[2-chloro-6-[(4,4-difluorocyclohexyl)amino]-3-pyridyl]methanone] | < 100 nM | < 100 nM | < 1000 nM | < 1000 nM |
| CC(C)=CNc1ncnc2[nH]cc(C(=O)c3ccc(NC4CCC(F)(F)CC4)nc3Cl)c12 [Compound P-4047, [2-chloro-6-[(4,4-difluorocyclohexyl)amino]-3-pyridyl]-[4-(2-methylprop-1-enylamino)-7H-pyrrolo[2,3-d]pyrimidin-5-yl]methanone] | > 1000 nM | > 1000 nM | > 1000 nM | > 1000 nM |
| Nc1ncnc2[nH]cc(C(=O)c3ccc(Nc4ccc(C5CC5)nc4)nc3F)c12 [Compound P-4048, (4-amino-7H-pyrrolo[2,3-d]pyrimidin-5-yl)-[6-[(6-cyclopropyl-3-pyridyl)amino]-2-fluoro-3-pyridyl]methanone] | < 10 nM | < 10 nM | < 1000 nM | < 10 nM |
| CC(C)(O)CNc1ncnc2[nH]cc(C(=O)c3ccc(Nc4ccc(C5CC5)nc4)nc3F)c12 [Compound P-4049, [6-[(6-cyclopropyl-3-pyridyl)amino]-2-fluoro-3-pyridyl]-[4-[(2-hydroxy-2-methyl-propyl)amino]-7H-pyrrolo[2,3-d]pyrimidin-5-yl]methanone] | < 1000 nM | < 10 nM | < 1000 nM | < 1000 nM |
| CCNc1ncnc2[nH]cc(C(=O)c3ccc(NC4CCC(F)(F)CC4)nc3Cl)c12 [Compound P-4050, [2-chloro-6-[(4,4-difluorocyclohexyl)amino]-3-pyridyl]-[4-(ethylamino)-7H-pyrrolo[2,3-d]pyrimidin-5-yl]methanone] | < 1000 nM | < 1000 nM | < 1000 nM | < 1000 nM |
| CCNc1ncnc2[nH]cc(C(=O)c3cnc(NC4CCC(F)(F)CC4)c(F)c3)c12 [Compound P-4051, [6-[(4,4-difluorocyclohexyl)amino]-5-fluoro-3-pyridyl]-[4-(ethylamino)-7H-pyrrolo[2,3-d]pyrimidin-5-yl]methanone] | < 1000 nM | < 1000 nM | < 1000 nM | < 10 nM |
| O=C(c1cnc(NC2CCC(F)(F)CC2)c(F)c1)c1c[nH]c2ncnc(NCC(F)(F)F)c12 [Compound P-4052, [6-[(4,4-difluorocyclohexyl)amino]-5-fluoro-3-pyridyl]-[4-(2,2,2-trifluoroethylamino)-7H-pyrrolo[2,3-d]pyrimidin-5-yl]methanone] | < 1000 nM | < 1000 nM | < 1000 nM | < 1000 nM |
| O=C(c1cnc(NC2CCC(F)(F)CC2)c(F)c1)c1c[nH]c2ncnc(NC3CC3)c12 [Compound P-4053, [4-(cyclopropylamino)-7H-pyrrolo[2,3-d]pyrimidin-5-yl]-[6-[(4,4-difluorocyclohexyl)amino]-5-fluoro-3-pyridyl]methanone] | < 1000 nM | < 10 nM | < 10 nM | < 10 nM |
| CNc1ncnc2[nH]cc(C(=O)c3cnc(NC4CCC(F)(F)CC4)c(F)c3)c12 [Compound P-4054, [6-[(4,4-difluorocyclohexyl)amino]-5-fluoro-3-pyridyl]-[4-(methylamino)-7H-pyrrolo[2,3-d]pyrimidin-5-yl]methanone] | < 1000 nM | < 10 nM | < 1000 nM | < 1000 nM |
